We go through seven compounds from patent US10231953B2, “Inhibitors of bromodomains” (Zenith Epigenetics Ltd., priority 2014, dated 2019).

SMILES strings stand for the structures. pIC50: −log10 of the molar value. “Also recorded” adds a separate entry of the source.

Experiment [1] has as its target T1, Brd4 bromodomain 1 (BRD4(1)) (Homo sapiens, UniProt O60885).
T1 construct: made in house; host or cells: E. coli BL21(DE3)
Nature of the experiment: Inhibition of tetra-acetylated histone H4 binding to BET bromodomain, HTRF/FRET. Particulars: HTRF, 2 h incubation at room temperature. How it is done:
Proteins are cloned and overexpressed with a N-terminal 6×His tag, then purified by nickel affinity followed by size exclusion chromatography. Briefly, E. coli BL21(DE3) cells are transformed with a recombinant expression vector encoding N-terminally Nickel affinity tagged bromodomains from Brd2, Brd3, Brd4. Cell cultures were incubated at 37° C. with shaking to the appropriate density and induced overnight with IPTG. The supernatant of lysed cells was loaded onto Ni-IDA column for purification. Eluted protein was pooled, concentrated and further purified by size exclusion chromatography. Fractions representing monomeric protein were pooled, concentrated, aliquoted, and frozen at −80° C. for use in subsequent experiments.
Binding of tetra-acetylated histone H4 and BET bromodomains is confirmed by a Homogenous Time Resolved Fluorescence Resonance Energy Transfer (HTRF®) method, N-terminally His-tagged bromodomains (200 nM) and biotinylated tetra-acetylated historic H4 peptide (25-50 nM, Millipore) are incubated in the presence of Europium Cryptate-labeled streptavidin (Cisbio Cat. #610SAKLB) and XL665-labeled monoclonal anti-His antibody (Cisbio Cat. #61HISXLB) in a white 96 well microtiter plate (Greiner). For inhibition assays, serially diluted test compound is added to these reactions in a 0.2% final concentration of DMSO. Duplicate wells are used for each concentration tested. Final buffer concentrations are 30 mM HEPES pH 7.4, 30 mM NaCl, 0.3 mM CHAPS, 20 mM phosphate pH 7.0, 320 mM KF, 0.08% BSA. After a 2 h incubation at room temperature, fluorescence is measured at 665 and 620 nm with a SynergyH4 plate reader (Biotek). The binding inhibitory activity is shown by a decrease in 665 nm relative to 620 nm fluorescence. IC50 values are determined from a dose response curve.

The next experiment has as its system c-myc. Put plainly: Inhibition of cMYC expression in cancer cell lines (mRNA, real-time PCR). Format: cell-based. The note with it: Human AML MV4-11 cells, 3 h. As to the method: MV4-11 cells (CRL-9591) were plated at a density of 2.5×10^4 cells per well in 96 well U-bottom plates and treated with increasing concentrations of test compound or DMSO) (0.1%) in IMDM media containing 10% FBS and penicillin/streptomycin, and incubated for 3 h at 37° C. Triplicate wells were used for each concentration. Cells were pelleted by centrifugation and harvested using the mRNA Catcher PLUS kit according to manufacturer's instructions. The eluted mRNA isolated was then used in a one-step quantitative real-time PCR reaction, using components of the RNA UltraSense™ One-Step Kit (Life Technologies) together with Applied Biosystems TaqMan® primer-probes for cMYC and Cyclophilin. Real-time PCR plates were run on a ViiA™7 real time PCR machine (Applied Biosystems), data was analyzed, normalizing the Ct values for cMYC to an internal control, prior to determining the fold expression of each sample, relative to the control.

The test system of a further experiment is Human AML MV-4-11 cells. Nature of the experiment: Inhibition of cell proliferation in cancer cell lines. Format: cell-based. Particulars: MV4-11, 72 h. As to the method: MV4-11 cells (CRL-9591) were plated at a density of 5×10^4 cells per well in 96 well flat bottom plates and treated with increasing concentrations of test compound or DMSO (0.1%) in IMDM media containing 10% FBS and penicillin/streptomycin. Triplicate wells were used for each concentration and a well containing only media was used as a control. Plates were incubated at 37° C., 5% CO2 for 72 h before adding 20 μL of the CellTiter Aqueous One Solution (Promega) to each well and incubated at 37° C., 5% CO2 for an additional 3-4 h. The absorbance was read at 490 nm in a spectrophotometer and the percentage of cell titer relative to DMSO-treated cells was calculated after correcting for background by subtracting the blank well's signal. IC50 values were calculated using the GraphPad Prism software.

Another experiment concerns hIL-6 mRNA. Nature of the experiment: Inhibition of hIL-6 mRNA transcription in LPS-stimulated U937 cells. Particulars: Homo sapiens, U-937; U937 cells differentiated with PMA, 1 h pretreatment, LPS 3 h; read-out: IL-6 activity. Format: cell-based. As to the method: Human leukemic monocyte lymphoma U937 cells (CRL-1593.2) were plated at a density of 3.2×10^4 cells per well in a 96-well plate in 100 μL RPMI-1640 containing 10% FBS and penicillin/streptomycin, and differentiated into macrophages for 3 days in 60 ng/mL PMA ([…]) at 37° C. in 5% CO2 prior to the addition of compound. The cells were pretreated for 1 h with increasing concentrations of test compound in 0.1% DMSO prior to stimulation with 1 ug/mL lipopolysaccharide from Escherichia coli. Triplicate wells were used for each concentration. The cells were incubated at 37° C., 5% CO2 for 3 h before the cells were harvested. At time of harvest, media was removed and cells were rinsed in 200 μL PBS. Cells were harvested using the mRNA Catcher PLUS kit according to manufacturer's instructions. The eluted mRNA was then used in a one-step quantitative real-time PCR reaction using components of the RNA UltraSense™ One-Step Kit (Life Technologies) together with Applied Biosystems TaqMan® primer-probes for hIL-6 and Cyclophilin. Real-time PCR plates were run on a ViiA™7 real time PCR machine (Applied Biosystems), data was analyzed, normalizing the Ct values for hIL-6 to an internal control, prior to determining the fold expression of each sample, relative to the control.

Another experiment has as its system MV4-11 cells. Nature of the experiment: Washout proliferation: effect of covalent binding on durability of proliferation. Format: cell-based, Human. The note with it: IC90 concentration for 24 h, then washout; for Percent proliferation relative to DMSO, 24 h: 24 h post washout; for Percent proliferation relative to DMSO, 48 h: 48 h post washout; for Percent proliferation relative to DMSO, 72 h: 72 h post washout. As to the method: MV4-11 cells (CRL-9591) were plated at a density of 5×10^4 cells per well in 96 well flat bottom plates and treated with IC90 concentration of covalent vs. non-covalent control compound or DMSO (0.1%) in IMDM media containing 10% FBS and penicillin/streptomycin. Triplicate wells were used for each concentration and a well containing only media is used as a control. Plates were incubated at 37° C., 5% CO2 for 24 h after which the compounds were removed, replaced with media, and proliferation was measured at 24, 48 and 72 hours post washout by adding 20 μL of the Cell Titer Aqueous One Solution (Promega) to each well and incubated at 37° C., 5% CO2 for an additional 3-4 h. The absorbance was read at 490 nm in a spectrophotometer and the percentage of cell titer relative to DMSO-treated cells was calculated after correcting for background by subtracting the blank well's signal. IC50 values are calculated using the GraphPad Prism software.

The test system of the next experiment is BET bromodomains. Nature of the experiment: Thermal shift assay to monitor covalent binding to BET bromodomains. The note with it: 100 μM compound, 5 μM protein, 30 minutes or 4 hours at room temperature. As to the method:
5 μM of purified bromodomain protein was incubated with 5× SYPRO® Orange (Molecular Probes) at a final concentration of 20 mM HEPES pH 7.4, 100 mM NaCl in the presence of 100 μM compound or DMSO (0.2%) in a fast 96 well optical plate (Applied Biosystems). Samples were incubated at room temperature for 30 minutes or 4 hours and ramped from 25° C. to 95° C. in a ViiA7 real-time PCR machine (Applied Biosystems). The resulting fluorescence data was analyzed and melting temperatures calculated using Protein Thermal Shift™ Software v1.0 (Life Technologies). A thermal shift indicates covalent binding of the inhibitor to the protein.

On to `Cc1noc(C)c1-c1cnc2nc(C)n(Cc3ccc(C(=O)CCl)cc3)c2c1` [Example 6, 2-Chloro-1-(4-((6-(3,5-dimethylisoxazol-4-yl)-2-methyl-1H-imidazo[4,5-b]pyridin-1-yl)methyl)phenyl)ethanone], for which the pIC50 in experiment [1] was no less than 6.52.

Turning to `Cc1noc(C)c1-c1cnc2nc(C)n(Cc3ccc(CC4CO4)cc3)c2c1` (stereo not drawn) [Example 7, 3,5-Dimethyl-4-(2-methyl-1-(4-(oxiran-2-ylmethyl)benzyl)-1H-imidazo[4,5-b]pyridin-6-yl)isoxazole], the pIC50 in experiment [1] is no less than 6.52.

With `Cc1noc(C)c1-c1cnc2nc(C)n(Cc3ccc(CCCl)cc3)c2c1` [Example 5, 4-(1-(4-(2-Chloroethyl)benzyl)-2-methyl-1H-imidazo[4,5-b]pyridin-6-yl)-3,5-dimethylisoxazole], the pIC50 is 5.52 to 6.52 in the experiment on c-myc and no less than 6.52 in experiment [1].

For `Cc1noc(C)c1-c1ccc(=O)n(Cc2ccc(C3CO3)cc2)c1` (stereo not drawn) [Example 2, 5-(dimethyl-1,2-oxazol-4-yl)-1-{[4-(oxiran-2-yl)phenyl]methyl}-1,2-dihydropyridin-2-one], the pIC50 in the experiment with c-myc was 4.52 to 5.52; with Human AML MV-4-11 cells it was 4.52 to 5.52; in experiment [1], no less than 6.52; in the experiment on hIL-6 mRNA, 4.52 to 5.52.

As to `Cc1noc(C)c1-c1cc(N)c2ncn(Cc3ccc(C4CO4)cc3)c2c1` (stereo not drawn) [Example 4, 6-(Dimethyl-1,2-oxazol-4-yl)-1-{[4-(oxiran-2-yl)phenyl]methyl}-1H-1,3-benzodiazol-4-amine], in the experiment with c-myc, the pIC50 was 5.52 to 6.52. In the experiment on MV4-11 cells, the “Percent proliferation relative to DMSO, 0 h” value is listed as 41%; the “Percent proliferation relative to DMSO, 24 h” value worked out at 0.2%; the “Percent proliferation relative to DMSO, 48 h” value turned out to be 15%; the “Percent proliferation relative to DMSO, 72 h” value came to 13%. This compound also had a pIC50 in the experiment on Human AML MV-4-11 cells of 5.52 to 6.52. Also, in experiment [1], the pIC50 is 5.52 to 6.52. Also, the pIC50 in the experiment on hIL-6 mRNA is 5.52 to 6.52. In addition, the “Thermal shift: covalent binding to bromodomain protein” value in the experiment with BET bromodomains is listed as “bind covalently; also recorded: time-dependent formation of the covalent complex”.

For the compound `Cc1noc(C)c1-c1cc(N)c(=O)n(Cc2ccc(C3CO3)cc2)c1` (stereo not drawn) [Example 3, 3-amino-5-(3,5-dimethylisoxazol-4-yl)-1-(4-(oxiran-2-yl)benzyl)pyridin-2(1H)-one], the pIC50 in the experiment with c-myc was 4.52 to 5.52; with Human AML MV-4-11 cells, 4.52 to 5.52; in experiment [1], no less than 6.52; in the experiment on hIL-6 mRNA, 5.52 to 6.52.

In the experiment with c-myc, `Cc1noc(C)c1-c1ccc(=O)n(Cc2ccc(C3CO3)c(F)c2)c1` (stereo not drawn) [Example 1, 5-(Dimethyl-1,2-oxazol-4-yl)-1-(3-fluoro-4-(oxiran-2-yl)benzyl)pyridin-2(1H)-one] showed a pIC50 of 4.52 to 5.52. In addition, in the experiment with MV4-11 cells, the “Percent proliferation relative to DMSO, 0 h” value is listed as 30%; the “Percent proliferation relative to DMSO, 24 h” value was determined as 2%; the “Percent proliferation relative to DMSO, 48 h” value was found to be 10%; the “Percent proliferation relative to DMSO, 72 h” value was determined as 5%. Moreover, in the experiment on Human AML MV-4-11 cells, the pIC50 is 4.52 to 5.52. Also, the pIC50 in experiment [1] was no less than 6.52. Also, the pIC50 in the experiment with hIL-6 mRNA was 4.52 to 5.52. For the same compound, in the experiment on BET bromodomains, the “Thermal shift: covalent binding to bromodomain protein” value is “bind covalently; also recorded: time-dependent formation of the covalent complex”.
